Measurements as given in patent publication US20100068793A1, “DEVICES AND METHODS FOR PRODUCTION OF CELL AGGREGATES” (priority 2007, published 2010).
“Also recorded” adds a separate entry of the source.

How the values were obtained:
hESC [1] = assay: Forced aggregation of hESC with or without ROCK inhibitor Y-27632; type: cell-based, human
Procedure: d) form aggregates in the presence of 10 μM Y27632 5. Suspend cells in X-vivo10 or other medium of interest at a concentration appropriate to the desired EB size and plate format (e.g. to form aggregates from 10,000 cells in 100 μL medium each in 96-well plates, suspend 1 million cells in 10 mL; for aggregates from 2,000 cells in 25 μL medium each in 384-well plates, suspend 0.8 million cells in 10 mL. NB multichannel pipettes or automated liquid handling systems often require a minimum “dead volume”, thus it may be necessary to make 10-20% additional volume of suspension depending on the specifics of the equipment employed. 6. Dispense the cell suspension into the well plates prepared in step 2. 7. Centrifuge for 5 minutes at 240×g 8. Incubate overnight at 37 degrees, 5% CO2 in a standard tissue culture incubator. 9. Recover EBs by pipetting using large-bore or cut-off pipette tips or by inverted centrifugation in the device described and illustrated in FIG. 1 or 2 for 1 minute at 20×g hESC were cultured on Matrigel in conditioned medium or with 48 hours of pre-differentiation in serum-containing medium, and were subjected to the forced aggregation protocol at 2,000 cells per well with or without addition of 10 μM of the ROCK inhibitor Y-27632. […] In the absence of both, no aggregates were formed (N.D.—size not determined). […]

hESC [2] = assay: Aggregate formation from hESC cultured on Matrigel after BMP pre-differentiation; type: cell-based, human; conditions: 50 ng/mL BMP4 pre-differentiation, control without BMP4 formed no aggregates
Procedure: Prepare a single-cell suspension by treating the hESC culture with TrypIE for 5 minutes, and washing the cells off with X-Vivo10
Count cells, spin down and re-suspend to 1 million cells/mL in X-Vivo or other medium of interest. Cells may all derive from a single culture, or cells from different sources may be combined.

## C[C@@H](N)[C@H]1CC[C@H](C(=O)Nc2ccncc2)CC1 [Y-27632]
hESC [1]; 10 μM Y-27632, hESC cultured on Matrigel, 2,000 cells per well, with or without 48 hours pre-differentiation in serum-containing medium
  aggregate size and symmetry: size and symmetry of aggregates are improved; also recorded: substantially increased aggregate size and symmetry
hESC [1]; 10 μM Y-27632 added to cell suspension immediately prior to dispensing, hESC on Matrigel in MEF-conditioned medium, with or without 48 hours predifferentiation in 20% serum
  aggregate formation / stability (SISO-aggregates, cross-sectional area): sizeable aggregates resulted

## BMP4: bone morphogenetic protein growth factor used for pre-differentiation
hESC [2]
  stable aggregate formation after BMP4 pre-differentiation: Aggregates formed from the pre-differentiated population
